Assay results published in article PMC5339975, “Cytotoxicity, antimicrobial and antioxidant activity of eight compounds isolated from Entada abyssinica (Fabaceae)” (BMC Research Notes, 2017).
In brackets after ≈: the same amount, converted by molar mass. Like-named read-outs stand apart in the source and are kept apart here. Marks after values point to notes of the source that are not given here.

Experiments:
[1] = Ferric reducing antioxidant power (FRAP) assay; conditions: mean ± SD of three experiments
Protocol: The antioxidant activity by the ferric reducing antioxidant power (FRAP) was assessed according to the method previously described with slight modifications.

[2] = DPPH radical-scavenging assay; conditions: mean ± SD of three experiments
Protocol: The DPPH radical-scavenging activity was assessed by the method previously described.

ABTS radical assay = conditions: mean ± SD of three experiments
Protocol: The antioxidant activity by ABTS was assessed according to the method previously described.

[3] = system: Salmonella typhimurium ATCC 14028; experiment: Antibacterial MIC, INT microdilution; format: cell-based; conditions: Salmonella enterica, read-out: MIC St
Protocol: (§1) The six bacterial strains included: Pseudomonas aeruginosa ATCC 27853, Bacillus cereus ATCC 14579, Staphylococcus aureus ATCC 29213, Escherichia coli ATCC 25922, Salmonella typhimurium ATCC 14028 and Enterococcus faecalis ATCC 29212. The antimicrobial activity was evaluated by determining the minimal inhibitory concentration (MIC) by the rapid p-iodonitrotetrazolium violet (INT) microdilution method as previously described.

[4] = system: Bacillus cereus ATCC 14579; experiment: Antibacterial MIC, INT microdilution; format: cell-based; conditions: ATCC14579, read-out: MIC Bc
Protocol: as §1

[5] = system: Pseudomonas aeruginosa ATCC 27853; experiment: Antibacterial MIC, INT microdilution; format: cell-based; conditions: ATCC27853, read-out: MIC Pa
Protocol: as §1

[6] = system: Staphylococcus aureus ATCC 29213; experiment: Antibacterial MIC, INT microdilution; format: cell-based; conditions: ATCC29213, read-out: MIC Sa
Protocol: as §1

[7] = system: Escherichia coli ATCC 25922; experiment: Antibacterial MIC, INT microdilution; format: cell-based; conditions: ATCC25922, read-out: MIC Ec
Protocol: as §1

[8] = system: Enterococcus faecalis ATCC 29212; experiment: Antibacterial MIC, INT microdilution; format: cell-based; conditions: ATCC29212, read-out: MIC Ef
Protocol: as §1

[9] = MTT cytotoxicity assay, normal cells; format: cell-based; conditions: monkey
Protocol: (§2) Cancer cell lines including human monocytic THP-1 and murine macrophage RAW 264.7 cells and the normal mammalian Vero monkey kidney cell line were obtained from the American Type Culture Collection (Rockville, MD, USA). They were maintained in DMEM under standard cell culture conditions at 37 °C and 5% CO2 in a humidified environment.
(§3) The 3-(4,5-dimethylthiazol-2-yl)-2,5-diphenyltetrazolium bromide (MTT) assay was used to determine the cytotoxicity of the compounds as previously described. The selectivity index (SI) values to identify selective anti-cancer cell activity were calculated by dividing the LC50 values of normal Vero cells by the LC50 of cancer cells.

RAW 264.7 cells = experiment: MTT cytotoxicity assay, cancer cells; format: cell-based; conditions: Mus musculus, RAW264.7, read-out: RAW 264.7 LC50
Protocol: as §2, §3

THP-1 cells = experiment: MTT cytotoxicity assay, cancer cells; format: cell-based; conditions: Homo sapiens, THP-1, read-out: THP-1 LC50
Protocol: as §2, §3

S. aureus = conditions: cited from earlier work
Vero monkey kidney cells = experiment: MTT cytotoxicity assay, normal cells; format: cell-based; conditions: normal Vero cells, MTT, mean ± SD
Protocol: as §2, §3

Row | SMILES | DPPH (IC50) [2] | ABTS (IC50) (ABTS radical assay) | MIC ([3]; Salmonella typhimurium) | MIC [4] | MIC [5] | MIC [6] | MIC [7] | MIC [8] | FRAP [1] | CC50 [9] | CC50 (RAW 264.7 cells) | CC50 (THP-1 cells) | MIC [3] | CC50 ([9]; normal Vero cells, MTT, mean ± SD, read-out: Vero LC50) | MIC (S. aureus) | Vero LC50 (Vero monkey kidney cells)
1 | O=C(CCCCCCCCCCCCCCCCCCCCCCCCC(=O)OC[C@@H](O)CO)OC[C@@H](O)CO [Compound 8, bis-[(S)-(2,3-dihydroxypropyl)] hexacosanedioate] | – (– 100 µg/mL) | – (– 100 µg/mL) | > 100 µg/mL | > 100 µg/mL | > 100 µg/mL | > 100 µg/mL | > 100 µg/mL | > 100 µg/mL | 22.98 ± 4.29^f µmol FeSO4/g | 80.5 ± 4.83 µg/mL (≈ 140 µM) | 86.5 ± 4.61 µg/mL (≈ 151 µM) | 65 ± 6.88 µg/mL (≈ 113 µM) | – | – | – | –
2 | C[C@@H]1O[C@@H](Oc2c(-c3ccc(O)c(O)c3)oc3cc(O)cc(O)c3c2=O)[C@H](O)[C@H](O)[C@H]1O [Compound 2, quercetin-3-O-α-L-rhamnoside] | 0.9 ± 0.06^b µg/mL | 3.53 ± 0.39^b µg/mL | – | 12.5 µg/mL (≈ 27.9 µM) | 50 µg/mL (≈ 112 µM) | 12.5 µg/mL (≈ 27.9 µM) | 50 µg/mL (≈ 112 µM) | 25 µg/mL (≈ 55.8 µM) | 76.01 ± 1.10^b µmol FeSO4/g | – | 16.4 ± 0.2 µg/mL (≈ 36.7 µM) | > 100 µg/mL | 3.12 µg/mL (≈ 6.96 µM) | 44.8 ± 2.83 µg/mL (≈ 100 µM) | – | –
3 | C[C@H]1[C@H](C)CC[C@]2(C(=O)O)CC[C@]3(C)C(=CC[C@@H]4[C@@]5(C)CC[C@H](O)C(C)(C)[C@@H]5CC[C@]43C)[C@H]12 [Compound 1, ursolic acid] | – | – | 100 µg/mL (≈ 219 µM) | 6.25 µg/mL (≈ 13.7 µM) | > 100 µg/mL | 12.5 µg/mL (≈ 27.4 µM) | > 100 µg/mL | > 100 µg/mL | – | 22.4 ± 2.48 µg/mL (≈ 49.1 µM) | 4.56 ± 0.02 µg/mL (≈ 9.98 µM) | 9.62 ± 0.59 µg/mL (≈ 21.1 µM) | – | – | 4 µg/mL (≈ 8.76 µM) | –
4 | COc1ccc(C[C@H](N)C(=O)N[C@H]2[C@@H](O)[C@H](n3cnc4c(N(C)C)ncnc43)O[C@@H]2CO)cc1 [Puromycin, reference compound] | – | – | – | – | – | – | – | – | – | – | 1.15 ± 0.17 µg/mL (≈ 2.44 µM) | 0.4 ± 0.02 µg/mL (≈ 0.848 µM) | – | – | – | 5.32 ± 0.90^i µg/mL
5 | COc1cccc2c1C(=O)c1c(O)c3c(c(O)c1C2=O)C[C@@](O)(C(=O)CO)C[C@@H]3O[C@H]1C[C@H](N)[C@H](O)[C@H](C)O1 [Doxorubicin, reference compound] | – | – | – | – | – | – | – | – | – | – | 0.5 µg/mL (≈ 0.92 µM) | > 100 µg/mL | – | – | – | 9.35 ± 0.66^h µg/mL

The next lines start with results.

Row | DPPH (IC50) [2] | ABTS (IC50) (ABTS radical assay) | MIC ([3]; Salmonella typhimurium) | MIC [4] | MIC [5] | MIC [6] | MIC [7] | MIC [8] | SMILES | FRAP [1] | CC50 [9] | CC50 (RAW 264.7 cells) | CC50 (THP-1 cells) | MIC [3] | CC50 ([9]; normal Vero cells, MTT, mean ± SD, read-out: Vero LC50) | MIC (S. aureus) | Vero LC50 (Vero monkey kidney cells)
6 | 3.44 ± 1.9^a,f µg/mL | 4.15 ± 1.21^d,e µg/mL | – | – | – | – | – | – | O=C1O[C@H]([C@@H](O)CO)C(O)=C1O [Ascorbic acid, reference compound] | – | – | – | – | – | – | – | –
7 | 1.12 ± 0.10^c,d µg/mL | 4.13 ± 0.10^e µg/mL | 1.56 µg/mL (≈ 4.53 µM) | 25 µg/mL (≈ 72.6 µM) | 25 µg/mL (≈ 72.6 µM) | 12.5 µg/mL (≈ 36.3 µM) | 12.5 µg/mL (≈ 36.3 µM) | > 100 µg/mL | COc1c(O)c(O)cc2c1COc1c-2oc2cc(O)cc(O)c2c1=O [Compound 7, entadanin] | 72.41 ± 2.02^b,e µmol FeSO4/g | 55.65 ± 0.3 µg/mL (≈ 162 µM) | 19.1 ± 0.25 µg/mL (≈ 55.5 µM) | 84.3 ± 3.3 µg/mL (≈ 245 µM) | – | – | – | –
8 | – | – | 2 µg/mL (≈ 4.19 µM) | 0.5 µg/mL (≈ 1.05 µM) | 0.25 µg/mL (≈ 0.523 µM) | 0.5 µg/mL (≈ 1.05 µM) | 1 µg/mL (≈ 2.09 µM) | 0.25 µg/mL (≈ 0.523 µM) | CNC(C)C1CCC(N)C(OC2C(N)CC(N)C(OC3OCC(C)(O)C(NC)C3O)C2O)O1 (centres unmarked) [Gentamicin, reference compound] | – | – | – | – | – | – | – | –
9 | – (– 100 µg/mL) | – (– 100 µg/mL) | > 100 µg/mL | > 100 µg/mL | > 100 µg/mL | > 100 µg/mL | > 100 µg/mL | > 100 µg/mL | C[C@@H]1CC[C@@]2(C)C(C(=O)O)=CCC[C@@H]2[C@@]1(C)CC(=O)O [Compound 5, 13,14,15,16-tetranor-3-clerodene-12,18-dioic acid] | 5.09 ± 0.40^c µmol FeSO4/g | 41.9 ± 1.85 µg/mL (≈ 149 µM) | 16.1 ± 1 µg/mL (≈ 57.4 µM) | 21.8 ± 1.11 µg/mL (≈ 77.8 µM) | – | – | – | –
10 | – (– 100 µg/mL) | – (– 100 µg/mL) | 100 µg/mL (≈ 287 µM) | 25 µg/mL (≈ 71.7 µM) | > 100 µg/mL | 25 µg/mL (≈ 71.7 µM) | > 100 µg/mL | > 100 µg/mL | COC(=O)/C=C(/C)CC[C@]1(C)[C@H]2CCC=C(C(=O)O)[C@]2(C)CC[C@@H]1C [Compound 4, (8S)-kolavic acid 15-methyl ester] | 1.93 ± 0.14^a µmol FeSO4/g | 47.5 ± 0.63 µg/mL (≈ 136 µM) | 52.3 ± 1.3 µg/mL (≈ 150 µM) | 49.8 ± 3.03 µg/mL (≈ 143 µM) | – | – | – | –
11 | 0.48 ± 0.02^c µg/mL | 2.53 ± 0.49^d µg/mL | 25 µg/mL (≈ 136 µM) | 50 µg/mL (≈ 272 µM) | > 100 µg/mL | 50 µg/mL (≈ 272 µM) | > 100 µg/mL | > 100 µg/mL | COC(=O)c1cc(O)c(O)c(O)c1 [Compound 6, methyl gallate] | 103.98 ± 13.70^d µmol FeSO4/g | 30.6 ± 3.09 µg/mL (≈ 166 µM) | 36.9 ± 1.27 µg/mL (≈ 200 µM) | 75 ± 1.68 µg/mL (≈ 407 µM) | – | – | – | –
12 | 8.71 ± 2.03^e µg/mL | 10.38 ± 2.4^a,f µg/mL | – | – | – | – | – | – | Cc1c(C)c2c(c(C)c1O)CCC(C)(C(=O)O)O2 (centres unmarked) [Trolox, reference compound] | – | – | – | – | – | – | – | –
